These results are taken from US20160206674A1, “FRUIT EXTRACTS AND EXTRACT FORMULATIONS OF CANARIUM ODONTOPHYLLUM AS ACTIVES AND RELATED INVENTION EMBODIMENTS” (BIOTROPICS MALAYSIA BHD, priority 2013, published 2016).

Each structure is given as a SMILES string.

For one assay, the target named is T1, human recombinant PDE2A1 (Homo sapiens, UniProt O00408).
T1 construct: FLAG (N); purchased BPS Bioscience 0021
Description: AlphaScreen cGMP PDE assay, PDE2. The note with it: n = 3. Format: biochemical. As for the experimental part: (§1) Phosphodiesterase inhibitory activity of the test items prepared according to the procedure in example 2 and outlined in table 2 were measured using the AlphaScreen® assay technology. Materials and methods were according to technical instructions given by Perkin Elmer (www.perkinelmer.com; “Application note “AlphaScreen cGMP Phosphodiesterase Assay Using AlphaScreen cGMP Supplement with Anti-cGMP Antibody”; Authors: Martin Boissonneault, Christian Fafard, Joe Trometer, Chantal Illy, Stéphane Parent, and Roger Bossé; PerkinElmer Life and Analytical Sciences, 710 Bridgeport Avenue, Shelton, Conn. 06484 USA).
(§2) The AlphaScreen cGMP PDE assay used PerkinElmer's AlphaScreen cGMP supplement with antibody (cat. no. 6760308M or 6760308R) which consists of a biotinylated cGMP derivative and an anti-cGMP antibody. The assay also requires the AlphaScreen Protein A detection kit (PerkinElmer cat. no. 6760617), composed of Protein A acceptor beads and Streptavidin donor beads. The human recombinant PDE5A (N-terminal GST, cat no 60050) and PDE2A1 (N-terminal FLAG tag, cat no 0021) were purchased from BPS Bioscience, San Diego, United States. […]
(§3) 1—Add 5 μL of inhibitor* * Please note that for compound screening purposes, adding […] of test compounds to 4.5 μL of cGMP substrate solution prepared in the PDE reaction Buffer is recommended. […] 2—Add 5 μL of PDE (5U per well) 3—Incubate 120 minutes at 23° C. for enzymatic cleavage of unlabeled cGMP 4—Add 5 μL of the AlphaScreen cGMP Supplement (1 nM final) 5—Add 10 μL Detection mix (anti-cGMP antibody/Streptavidin-Donor beads (20 μg/mL final)/Protein A-Acceptor beads (20 μg/mL final)) 6—Incubate the plate for 1 hour at room temperature in the dark and detect the AlphaScreen signal using the microplate analyzer PHERAstar reader.

A further assay has as its target T2, human recombinant PDE5A (Homo sapiens, UniProt O76074).
T2 construct: GST (N); purchased BPS Bioscience 60050
Description: AlphaScreen cGMP PDE assay, PDE5. Format: biochemical. The conditions noted are these: n = 3. The protocol:
as §1, §2, §3

T1 sequence (O00408 1-920 isoform O00408-2): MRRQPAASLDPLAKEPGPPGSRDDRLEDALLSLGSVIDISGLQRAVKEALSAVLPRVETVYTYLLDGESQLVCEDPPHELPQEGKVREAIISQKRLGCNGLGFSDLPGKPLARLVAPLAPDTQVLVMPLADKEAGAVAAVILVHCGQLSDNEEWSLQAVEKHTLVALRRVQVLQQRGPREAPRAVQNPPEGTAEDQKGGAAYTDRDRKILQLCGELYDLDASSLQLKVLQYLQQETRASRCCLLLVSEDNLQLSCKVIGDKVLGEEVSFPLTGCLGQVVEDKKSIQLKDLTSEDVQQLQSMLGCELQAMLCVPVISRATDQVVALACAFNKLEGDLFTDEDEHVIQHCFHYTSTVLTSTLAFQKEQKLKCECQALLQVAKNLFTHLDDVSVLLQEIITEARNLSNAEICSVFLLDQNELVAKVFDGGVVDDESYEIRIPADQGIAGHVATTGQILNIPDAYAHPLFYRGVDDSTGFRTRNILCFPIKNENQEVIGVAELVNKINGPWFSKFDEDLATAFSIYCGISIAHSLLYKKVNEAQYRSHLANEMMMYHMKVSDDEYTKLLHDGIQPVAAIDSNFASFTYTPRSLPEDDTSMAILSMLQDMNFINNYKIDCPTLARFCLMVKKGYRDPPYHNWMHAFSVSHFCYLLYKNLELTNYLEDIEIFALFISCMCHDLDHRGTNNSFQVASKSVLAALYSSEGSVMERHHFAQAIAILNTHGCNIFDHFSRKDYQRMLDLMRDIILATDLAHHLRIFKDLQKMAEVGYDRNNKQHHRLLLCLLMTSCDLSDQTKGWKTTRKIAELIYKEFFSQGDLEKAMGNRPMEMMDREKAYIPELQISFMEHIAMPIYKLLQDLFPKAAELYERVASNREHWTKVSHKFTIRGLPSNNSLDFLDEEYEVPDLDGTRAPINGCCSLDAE

On to `CCCCCCC(C(C)O)n1cnc2c(N)ncnc21.Cl` (stereo not drawn) [EHNA], for which the figures for the “% inhibition of PDE-2” value at human recombinant PDE2A1 (Reference at 10 μM), on human recombinant PDE2A1 (reference at 1 μM) and on human recombinant PDE2A1 (reference at 5 μM) were 98%, 33% and 73%, respectively.

For `CCCOc1ccccc1-c1nc2nn[nH]c2c(=O)[nH]1` [Zaprinast], on human recombinant PDE5A (reference at 1 μM), the inhibition at 1 µM is 57%. The inhibition at 5 µM at human recombinant PDE5A (reference at 5 μM) was 81%. Further, the inhibition at 19 µM at human recombinant PDE5A (reference at 19 μM) was 88%.
